Reference: BigSolDB 2.1

CO[C@@]1(NC(=O)CSCC#N)C(=O)N2C(C(=O)O)=C(CSc3nnnn3C)CS[C@@H]21
solubility (mole fraction)
Conditions | 278.15 K | 283.15 K | 288.15 K | 293.15 K | 298.15 K | 303.15 K
in ethanol | 0.000215 | 0.000282 | 0.000369 | 0.000467 | 0.000596 | 0.000757
in isopropanol | 4.6e-05 | 6.16e-05 | 8.19e-05 | 0.000107 | 0.000138 | 0.000174
in methanol | 0.00154 | 0.00202 | 0.00264 | 0.00337 | 0.00429 | 0.00545
in water | 1.57e-05 | 2.05e-05 | 2.65e-05 | 3.46e-05 | 4.39e-05 | 5.52e-05
